Experimental data taken from US6262084A, “Compounds that inhibit the binding of integrins to their receptors” (Texas Biotechnology Corporation, priority 1999, dated 2001).
pIC50: −log10 of the molar value.

Target: T1, α4β1 integrin (Homo sapiens, UniProt P05556+P13612)
T1 construct: Ramos cells fluorescently labeled with calcein; endogenous in cells; host or cells: Ramos cells
Test: Inhibition of adhesion of calcein-labeled Ramos cells to CS1 (fibronectin) peptide-conjugated ovalbumin
Type: cell-based
Settings: for pIC50: dose required to give 50% inhibition, Ramos cell adhesion to CS1-ovalbumin, 30 minutes at 37° C; for inhibition at 100 µM: Ramos, compound at a concentration of 100 μM, read-out: % A (percent inhibition of cell adhesion)
How it was run: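 Calcein-labelled Ramos cells (2.5×10^5/well) in TBS with 1 mM MgCl2, CaCl2 and MnCl2 adhered to CS1 peptide–ovalbumin coated at 5 μg/ml for 30 min at 37 °C, with or without compound. After washing, bound cells were lysed and read by fluorescence. IC50 is the dose giving 50% inhibition, and % inhibition was measured at 100 μM.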

T1 sequence (P13612 34-1032): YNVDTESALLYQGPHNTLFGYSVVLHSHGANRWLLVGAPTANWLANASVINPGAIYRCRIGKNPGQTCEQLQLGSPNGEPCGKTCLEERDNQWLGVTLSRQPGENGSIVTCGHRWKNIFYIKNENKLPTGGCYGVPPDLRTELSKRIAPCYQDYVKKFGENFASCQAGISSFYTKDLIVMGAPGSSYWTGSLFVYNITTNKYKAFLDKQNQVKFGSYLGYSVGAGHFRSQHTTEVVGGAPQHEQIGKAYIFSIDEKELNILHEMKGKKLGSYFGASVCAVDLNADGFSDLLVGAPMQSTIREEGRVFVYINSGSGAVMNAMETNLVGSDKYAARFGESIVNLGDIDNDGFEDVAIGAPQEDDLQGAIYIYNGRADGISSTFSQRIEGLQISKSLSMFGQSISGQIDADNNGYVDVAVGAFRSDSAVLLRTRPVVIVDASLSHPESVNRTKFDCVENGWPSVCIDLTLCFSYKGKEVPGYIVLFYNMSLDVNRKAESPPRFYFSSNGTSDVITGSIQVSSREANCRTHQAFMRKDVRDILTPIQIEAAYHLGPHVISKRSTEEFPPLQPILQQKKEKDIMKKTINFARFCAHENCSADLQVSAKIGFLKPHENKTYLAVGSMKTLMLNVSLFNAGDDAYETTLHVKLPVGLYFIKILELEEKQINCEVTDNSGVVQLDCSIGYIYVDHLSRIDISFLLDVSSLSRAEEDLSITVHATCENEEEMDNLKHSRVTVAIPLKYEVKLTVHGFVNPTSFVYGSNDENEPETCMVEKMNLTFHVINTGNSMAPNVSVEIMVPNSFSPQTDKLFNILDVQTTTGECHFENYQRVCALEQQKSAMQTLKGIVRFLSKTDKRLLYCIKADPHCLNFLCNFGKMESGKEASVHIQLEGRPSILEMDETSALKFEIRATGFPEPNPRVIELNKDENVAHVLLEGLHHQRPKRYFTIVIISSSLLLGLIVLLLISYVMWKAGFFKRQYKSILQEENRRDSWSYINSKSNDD
T1 sequence (P05556 21-798): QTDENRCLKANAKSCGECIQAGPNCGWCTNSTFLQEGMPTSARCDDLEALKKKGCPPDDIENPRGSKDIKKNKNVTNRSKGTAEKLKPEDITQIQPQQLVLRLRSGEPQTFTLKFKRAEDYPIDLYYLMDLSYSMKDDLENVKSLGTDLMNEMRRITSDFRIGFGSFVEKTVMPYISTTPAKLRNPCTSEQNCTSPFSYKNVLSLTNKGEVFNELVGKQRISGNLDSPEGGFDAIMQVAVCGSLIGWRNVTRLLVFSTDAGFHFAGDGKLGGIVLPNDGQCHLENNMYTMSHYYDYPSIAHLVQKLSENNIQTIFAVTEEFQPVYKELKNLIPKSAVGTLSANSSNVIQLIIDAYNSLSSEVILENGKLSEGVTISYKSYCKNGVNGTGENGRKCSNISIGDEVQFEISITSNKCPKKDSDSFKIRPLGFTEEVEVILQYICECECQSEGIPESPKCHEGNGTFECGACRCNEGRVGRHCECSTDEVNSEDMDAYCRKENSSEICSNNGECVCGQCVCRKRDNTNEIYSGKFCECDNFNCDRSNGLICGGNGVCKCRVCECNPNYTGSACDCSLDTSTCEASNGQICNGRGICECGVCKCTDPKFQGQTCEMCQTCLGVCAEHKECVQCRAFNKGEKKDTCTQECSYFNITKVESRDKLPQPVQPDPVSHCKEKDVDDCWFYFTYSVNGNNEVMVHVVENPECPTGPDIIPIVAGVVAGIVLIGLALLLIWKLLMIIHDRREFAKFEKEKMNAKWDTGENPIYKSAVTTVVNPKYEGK

pIC50 (Table 2)	inhibition at 100 µM (Table 1)	pIC50 (Table 1)	SMILES
7.00	–	–	CCCC[C@H](NC(=O)N[C@@H](CC(=O)O)c1ccc2c(c1)OCO2)C(=O)NCc1ccc(NCc2ccc(C)s2)cc1 [Compound 41, 3(3S)-3-(1,3-benzodioxol-5-yl)-3-([((1S)-1-[(4-(5-methyl-2-thienylmethyl)aminobenzyl)amino]carbonylpentyl)amino]carbonylamino)propanoic acid]
–	100%	6.52	CCCC[C@@H](CSc1ccc(NC(=O)Nc2ccccc2C)cc1)OC(=O)N[C@@H](CC(=O)O)c1ccc2c(c1)OCO2 [(3S)-3-(1,3-benzodioxol-5-yl)-3-{[({(1S)-1-[({4-[(2-toluidinocarbonyl)amino]phenyl}thio)methyl]pentyl}oxy)carbonyl]amino}propanoic acid]
–	100%	5.40	CSCC[C@@H](CSc1ccccc1)NC(=O)N[C@H](CSc1ccccc1)CC(=O)O [Compound 8, (3S)-3-{[({(1S)-3-(methylsulfanyl)-1-[(phenylsulfanyl)methyl]propyl}amino)carbonyl]amino}-4-(phenylsulfanyl)butanoic acid]
–	100%	5.70	O=C(O)C[C@H](NC(=O)N[C@@H](CCCO)CSc1ccccc1)c1ccc2c(c1)OCO2 [(3S)-3-(1,3-benzodioxol-5-yl)-3-{[({(1S)-4-hydroxy-1-[(phenylthio)methyl]butyl}amino)carbonyl]amino}propanoic acid]
